Test results reported in patent US8609836B2, “4-aryl-2-anilino-pyrimidines” (Janssen Pharmaceutica NV, priority 2008, dated 2013).

Tests used:
PLK4 (h) = PLK4 (h) (Homo sapiens, UniProt O00444); test: PLK-4 human kinase inhibition, scintillation proximity assay (SPA); type: biochemical; conditions: read-out: PLK4 pIC50 (converted)
CDK4/CyclinD1 (h) = CDK4/CyclinD1 (h) (Homo sapiens, UniProt P11802); test: CDK4/CyclinD1 human kinase inhibition, SPA with GST-pRb substrate; type: biochemical; conditions: read-out: CDK4 pIC50 (converted)
Summary of the method: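 Human CDK4/CyclinD1 (2.5 μg/ml) was incubated with 40 μg/ml GST-pRb and 2 nM [γ-33P]ATP in 50 mM Hepes pH 7.5, 8 mM NaF, 20 mM MgCl2, 1 mM DTT for 60 min at room temperature. EDTA stop with glutathione SPA beads; phosphorylation read by scintillation counting.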

PLK2 (h) = PLK2 (h) (Homo sapiens, UniProt Q9NYY3); test: PLK2 human kinase inhibition, SPA; type: biochemical; conditions: read-out: PLK2 pIC50 (converted)
Summary of the method: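 SPA read on Leadseeker: PLK2 (30 μg/ml) with 2 μM biotinylated peptide, 0.1 μM ATP plus 2 nM [γ-33P]ATP in 50 mM Hepes pH 8.0, 2 mM MnCl2, 1 mM DTT. Reaction ran 20 min at room temperature, then EDTA stop and streptavidin PVT beads.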

MDA-MB-231 = test: Cellular proliferation assay (Alamar blue), MDA-MB-231; type: cell-based; conditions: Homo sapiens, 10% FCS, 72 hours with compound, Alamar blue 24 h, read-out: MDA/MB231 (cellular proliferation assay, Table 4) (converted)
Summary of the method: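 Proliferation in 10% FCS over a 72 h compound treatment, read as viable cell number by Alamar blue fluorescence and calculated against untreated control cells. Dye time varied by line: 6 h U87-MG, 4 h HCT-116, 24 h A2780 and MDA-MB-231.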

Sequence of PLK2 (h) (Q9NYY3 whole entry): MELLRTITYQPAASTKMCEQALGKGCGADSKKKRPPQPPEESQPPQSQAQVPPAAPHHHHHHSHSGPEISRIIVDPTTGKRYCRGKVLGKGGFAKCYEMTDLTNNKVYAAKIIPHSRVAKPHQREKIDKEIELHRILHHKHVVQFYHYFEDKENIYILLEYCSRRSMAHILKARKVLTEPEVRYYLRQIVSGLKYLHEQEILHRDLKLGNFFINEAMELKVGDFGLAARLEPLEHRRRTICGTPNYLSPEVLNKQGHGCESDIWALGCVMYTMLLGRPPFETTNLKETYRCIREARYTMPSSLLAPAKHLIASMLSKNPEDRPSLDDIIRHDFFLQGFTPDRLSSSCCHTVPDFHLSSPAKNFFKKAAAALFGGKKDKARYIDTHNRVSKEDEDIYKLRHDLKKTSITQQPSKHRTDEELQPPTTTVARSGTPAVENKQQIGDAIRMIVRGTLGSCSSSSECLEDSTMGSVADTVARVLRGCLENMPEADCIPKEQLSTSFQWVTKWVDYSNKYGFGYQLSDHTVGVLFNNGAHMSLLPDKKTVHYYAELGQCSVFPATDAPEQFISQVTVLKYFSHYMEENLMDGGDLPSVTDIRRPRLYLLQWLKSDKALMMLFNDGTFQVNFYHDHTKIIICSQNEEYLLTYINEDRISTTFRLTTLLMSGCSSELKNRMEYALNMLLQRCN
Sequence of CDK4/CyclinD1 (h) (P11802 whole entry): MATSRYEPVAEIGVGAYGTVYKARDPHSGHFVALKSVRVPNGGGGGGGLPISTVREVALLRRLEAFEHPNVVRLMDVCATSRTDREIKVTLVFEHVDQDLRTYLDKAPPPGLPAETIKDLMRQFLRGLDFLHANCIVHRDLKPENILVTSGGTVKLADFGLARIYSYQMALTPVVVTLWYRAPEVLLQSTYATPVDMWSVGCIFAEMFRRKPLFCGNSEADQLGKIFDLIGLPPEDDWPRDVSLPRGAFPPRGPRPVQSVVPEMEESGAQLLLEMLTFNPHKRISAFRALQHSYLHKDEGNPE
Sequence of CDK4/CyclinD1 (h) (P24385 whole entry partner): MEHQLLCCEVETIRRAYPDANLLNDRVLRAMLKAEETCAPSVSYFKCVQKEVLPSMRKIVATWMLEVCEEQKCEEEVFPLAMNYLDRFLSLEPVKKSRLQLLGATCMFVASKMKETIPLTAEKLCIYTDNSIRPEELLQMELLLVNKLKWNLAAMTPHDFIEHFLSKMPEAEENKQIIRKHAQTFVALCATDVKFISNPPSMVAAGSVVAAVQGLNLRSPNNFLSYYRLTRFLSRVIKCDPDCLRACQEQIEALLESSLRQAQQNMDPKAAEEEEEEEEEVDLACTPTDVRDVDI
Sequence of PLK4 (h) (O00444 whole entry): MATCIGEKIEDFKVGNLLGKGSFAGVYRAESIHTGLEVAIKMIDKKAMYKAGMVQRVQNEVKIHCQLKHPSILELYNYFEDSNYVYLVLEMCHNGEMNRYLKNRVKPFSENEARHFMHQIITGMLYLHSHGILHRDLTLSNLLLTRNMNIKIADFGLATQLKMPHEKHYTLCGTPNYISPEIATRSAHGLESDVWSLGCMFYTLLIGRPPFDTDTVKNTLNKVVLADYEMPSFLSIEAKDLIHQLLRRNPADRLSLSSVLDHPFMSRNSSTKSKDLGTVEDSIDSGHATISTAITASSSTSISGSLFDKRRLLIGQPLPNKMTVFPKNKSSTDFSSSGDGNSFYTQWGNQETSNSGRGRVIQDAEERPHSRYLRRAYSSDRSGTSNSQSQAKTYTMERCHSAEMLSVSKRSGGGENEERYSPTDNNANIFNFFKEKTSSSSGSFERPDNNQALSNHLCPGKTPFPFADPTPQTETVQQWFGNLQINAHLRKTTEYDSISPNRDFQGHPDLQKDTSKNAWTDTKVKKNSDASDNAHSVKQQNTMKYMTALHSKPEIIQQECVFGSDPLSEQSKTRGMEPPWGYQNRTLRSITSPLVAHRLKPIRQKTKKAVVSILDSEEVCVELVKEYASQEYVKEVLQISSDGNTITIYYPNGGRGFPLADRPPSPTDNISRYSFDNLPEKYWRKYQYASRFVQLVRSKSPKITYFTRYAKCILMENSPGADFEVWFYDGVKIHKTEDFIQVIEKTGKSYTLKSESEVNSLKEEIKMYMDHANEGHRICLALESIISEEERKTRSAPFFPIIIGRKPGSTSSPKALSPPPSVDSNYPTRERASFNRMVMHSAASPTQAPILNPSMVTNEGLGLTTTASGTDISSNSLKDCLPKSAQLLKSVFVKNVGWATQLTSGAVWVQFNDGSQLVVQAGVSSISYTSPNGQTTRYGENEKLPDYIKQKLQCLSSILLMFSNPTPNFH

Structure (SMILES) | IC50 (PLK4 (h)) [µM] | IC50 (CDK4/CyclinD1 (h)) [µM] | IC50 (PLK2 (h)) [µM] | IC50 (MDA-MB-231) [µM]
O=C1NCCCOc2cccc(c2)-c2ccnc(n2)Nc2ccc(N3CCOCC3)c(c2)CN[C@H]1Cc1ccccc1 [Compound 91] | 1.41 | > 10 | > 10 | > 10
COc1ccc2cc1CN(C)CCNC(=O)[C@@H]1CCCN1Cc1cccc(c1)Nc1nccc-2n1 [Compound 175] | 8.51 | > 10 | > 10 | > 10
COc1ccc2cc1CN(C)CCCNC(=O)[C@@H]1CCCN1Cc1cc(cc(NC(C)C)c1)Nc1nccc-2n1 [Compound 164] | 2.63 | > 10 | > 10 | > 10
CC(C)Nc1cc2cc(c1)Nc1nccc(n1)-c1ccc(cc1)CN(C)CCNC(=O)C1CCN(CC1)C2 [Compound 61] | 0.724 | 7.41 | > 10 | > 10
O=C(NC1CCOCC1)c1ccc2cc1CN1CCC[C@H]1C(=O)NCc1cccc(c1)-c1ccnc(n1)N2 [Compound 46] | 0.427 | 5.75 | > 10 | > 10
O=C1NCCNc2cc(ccn2)-c2ccnc(n2)Nc2ccc(N3CCOCC3)c(c2)CN2CCC1CC2 [Compound 84] | 5.37 | 7.24 | > 10 | > 10
COc1ccc2cc1CN1CCN(CC1)CC(=O)N(C)CCN(C)c1ccc(cn1)-c1ccnc(n1)N2 [Compound 14] | 1.35 | > 10 | > 10 | > 10
COc1ccc2cc1CN(C)CCCNC(=O)CN1CCN(CC1)Cc1cc(cc(NC(C)C)c1)Nc1nccc-2n1 [Compound 130] | 1.23 | > 10 | > 10 | > 10
CN(C)CCNC(=O)c1ccc2cc1CN1CCC[C@H]1C(=O)NCc1cccc(c1)-c1ccnc(n1)N2 [Compound 42] | 0.355 | 0.457 | > 10 | 1.91
O=C1CN2CCN(CC2)Cc2cc(ccc2N2CCOCC2)Nc2nccc(n2)-c2cccc(c2)OCCCN1 [Compound 103] | 1.1 | > 10 | > 10 | > 10
COc1ccc2cc1CN(C)CCCNC(=O)C1CCN(CC1)Cc1cc(cc(N3CCOCC3)c1)Nc1nccc-2n1 [Compound 80] | 5.37 | > 10 | > 10 | > 10
COc1ccc2cc1CNCCNC(=O)CN1CCN(CC1)Cc1cc(ccc1N1CCOCC1)Nc1nccc-2n1 [Compound 126] | 0.813 | > 10 | > 10 | > 10
CN1CCCNC(=O)C2CCN(CC2)Cc2cccc(c2)Nc2nccc(n2)-c2ccc(cc2)C1 [Compound 78] | 4.9 | > 10 | > 10 | 7.59
COc1ccc2cc1CNCCNC(=O)[C@@H]1C[C@@H](O)CN1Cc1cc(ccc1N1CCOCC1)Nc1nccc-2n1 [Compound 177] | > 10 | > 10 | > 10 | > 10
C[C@@H]1NCc2cc(ccc2N2CCOCC2)Nc2nccc(n2)-c2ccc(cc2)OCCCNC1=O [Compound 5] | 0.162 | 1.29 | > 10 | > 10
C[C@H]1NCc2cc(ccc2N2CCOCC2)Nc2nccc(n2)-c2cccc(c2)OCCCNC1=O [Compound 87] | 0.407 | 1.26 | > 10 | 8.13
COc1ccc2cc1CN(C)CCCNC(=O)C1CCN(CC1)Cc1cc(Br)cc(c1)Nc1nccc-2n1 [Compound 76] | 3.24 | > 10 | > 10 | 6.76
COc1ccc2cc1CN1CCC(CC1)C(=O)N(C)CCN(C)c1ccc(cn1)-c1ccnc(n1)N2 [Compound 4] | 2.4 | 1.91 | > 10 | > 10
COCCNC(=O)c1ccc2cc1CN1CCC[C@H]1C(=O)NCc1cccc(c1)-c1ccnc(n1)N2 [Compound 40] | 0.288 | 1.62 | > 10 | > 10
O=C1NCCCc2cc(ccn2)-c2ccnc(n2)Nc2ccc(N3CCOCC3)c(c2)CN2CCCC12 (stereo not drawn) [Compound 48] | 0.661 | > 10 | > 10 | > 10
C[C@H]1NCc2cc(ccc2N2CCOCC2)Nc2nccc(n2)-c2ccc(cc2)OCCCNC1=O [Compound 86] | 0.209 | 0.49 | > 10 | > 10

Structure (SMILES) | IC50 (PLK4 (h)) [µM] | IC50 (CDK4/CyclinD1 (h)) [µM] | IC50 (PLK2 (h)) [µM] | IC50 (MDA-MB-231) [µM]
COCCNCc1cc2cc(c1)Nc1nccc(n1)-c1cccc(c1)CNC(=O)[C@@H]1CCCN1C2 [Compound 33] | 0.178 | 1.26 | > 10 | 0.832
O=C1NCCOc2ccc(cc2)-c2ccnc(n2)Nc2ccc(N3CCOCC3)c(c2)CN2CCC1CC2 [Compound 6] | 0.316 | 0.562 | > 10 | 0.363
COc1ccc2cc1CN(C)CCNC(=O)C1CCN(CC1)Cc1cc(cc(N3CCOCC3)c1)Nc1nccc-2n1 [Compound 77] | 4.79 | > 10 | > 10 | > 10
O=C(NC1CCCCC1)c1ccc2cc1CN1CCC[C@H]1C(=O)NCc1cccc(c1)-c1ccnc(n1)N2 [Compound 41] | 0.347 | 5.62 | > 10 | > 10
CN(C)CCNCc1cc2cc(c1)Nc1nccc(n1)-c1cccc(c1)CNC(=O)[C@@H]1CCCN1C2 [Compound 31] | 0.166 | 1 | > 10 | 1.55
CN1CCCNC(=O)[C@@H]2CCCN2Cc2cccc(c2)Nc2nccc(n2)-c2ccc(cc2)C1 [Compound 173] | 6.17 | > 10 | > 10 | > 10
CN1CCNC(=O)CN2CCN(CC2)Cc2cc(cc(N3CCOCC3)c2)Nc2nccc(n2)-c2ccc(cc2)C1 [Compound 135] | 1.74 | > 10 | > 10 | > 10
CN1CCNC(=O)C2CCN(CC2)Cc2cc(cc(N3CCOCC3)c2)Nc2nccc(n2)-c2ccc(cc2)C1 [Compound 68] | 1.55 | > 10 | > 10 | > 10
CC(C)Nc1cc2cc(c1)Nc1nccc(n1)-c1ccc(cc1)CN(C)CCNC(=O)[C@@H]1CCCN1C2 [Compound 153] | 0.776 | > 10 | > 10 | > 10
COc1ccc2cc1CN(C)CCCNC(=O)C1CCN(CC1)Cc1cc(cc(NC(C)C)c1)Nc1nccc-2n1 [Compound 70] | 1.58 | > 10 | > 10 | > 10
CN1CCCNC(=O)[C@H](CO)NCc2cc(cc(N3CCOCC3)c2)Nc2nccc(n2)-c2ccc(cc2)C1 [Compound 10] | 0.513 | > 10 | > 10 | > 10
CN1CCNC(=O)[C@@H]2CCCN2Cc2cc(Br)cc(c2)Nc2nccc(n2)-c2ccc(cc2)C1 [Compound 155] | 0.832 | > 10 | > 10 | > 10
CN1CCCNC(=O)[C@@H]2CCCN2Cc2cc(cc(N3CCOCC3)c2)Nc2nccc(n2)-c2ccc(cc2)C1 [Compound 16] | 0.617 | > 10 | > 10 | > 10
CN(C)Cc1cc2cc(c1)Nc1nccc(n1)-c1cccc(c1)CNC(=O)[C@@H]1CCCN1C2 [Compound 30] | 0.162 | 0.891 | > 10 | 0.257
O=C1NCCNCc2ccc(cc2)-c2ccnc(n2)Nc2ccc(N3CCOCC3)c(c2)CN[C@H]1CO [Compound 115] | 1.35 | > 10 | > 10 | > 10
O=C1NCCCOc2ccc(cc2)-c2ccnc(n2)Nc2ccc(N3CCOCC3)c(c2)CN2CCC1CC2 [Compound 92] | 0.398 | 0.891 | > 10 | 2.51
CN(C)C(=O)c1ccc2cc1CN1CCC[C@H]1C(=O)NCc1cccc(c1)-c1ccnc(n1)N2 [Compound 24] | 0.0776 | 4.27 | > 10 | > 10
C[C@@H]1NCc2cc(ccc2N2CCOCC2)Nc2nccc(n2)-c2cccc(c2)OCCCNC1=O [Compound 88] | 0.447 | 1.41 | > 10 | 6.76
COc1ccc2cc1CN(C)CCCNC(=O)[C@@H]1CCCN1Cc1cc(cc(N3CCOCC3)c1)Nc1nccc-2n1 [Compound 179] | > 10 | > 10 | > 10 | > 10
O=C1NCCNc2cc(ccn2)-c2ccnc(n2)Nc2ccc(N3CCOCC3)c(c2)CN2CCCC12 (stereo not drawn) [Compound 161] | 1.58 | > 10 | > 10 | > 10
COc1ccc2cc1CN(C)CCNC(=O)CN1CCN(CC1)Cc1cc(cc(NC(C)C)c1)Nc1nccc-2n1 [Compound 142] | 3.31 | > 10 | > 10 | > 10
